{"source": "ChEMBL document CHEMBL5614431", "about": "“Discovery of 1,3,4-oxadiazoles with slow-action activity against Plasmodium falciparum malaria parasites” (Eur J Med Chem, 2024)", "data": [{"tested_on": "not listed separately", "assay": "Selectivity ratio of IC50 for antimalarial activity against synchronous ring stage Plasmodium falciparum 3D7 infected in human Erythrocyte assessed as inhibition of parasite growth incubated for 48 hrs by [3H]-hypoxanthine incorporation assay to IC50 for antimalarial activity against synchronous ring stage Plasmodium falciparum 3D7 infected in human Erythrocyte assessed as inhibition of parasite growth incubated for 48 hrs by [3H]-hypoxanthine incorporation assay", "type": "functional", "conditions": "not given", "values": [{"smiles": "CC(C)(C)OC(=O)N1CCN(c2nnc(S(=O)(=O)C3CCCCC3)o2)CC1", "Ratio IC50": ">18"}, {"smiles": "O=S(=O)(c1nnc(N2CCCC3(COC3)C2)o1)C1CCCCC1", "Ratio IC50": ">93"}, {"smiles": "CC(C)(C)OC(=O)N1CCC(S(=O)(=O)c2nnc(N3CCOCC3)o2)CC1", "Ratio IC50": ">5"}, {"smiles": "Cl.O=S(=O)(c1nnc(N2CCOCC2)o1)C1CCNCC1", "Ratio IC50": 1}, {"smiles": "O=S(=O)(c1nnc(N2C3CCCC2CC3)o1)C1CCCCC1", "Ratio IC50": ">61"}, {"smiles": "O=S(=O)(c1ccc(Cl)c(Cl)c1)c1nnc(N2CCOCC2)o1", "Ratio IC50": 0.5}, {"smiles": "O=S(=O)(c1nnc(N2CCC3(CC2)OCCO3)o1)C1CCCCC1", "Ratio IC50": ">56"}, {"smiles": "O=S(=O)(CC1CCCCC1)c1nnc(N2CCOCC2)o1", "Ratio IC50": 45}, {"smiles": "O=S(=O)(c1nnc(N2CCOCC2)o1)C1CCCC1", "Ratio IC50": ">9"}, {"smiles": "N#CC1CCN(c2nnc(S(=O)(=O)C3CCCCC3)o2)CC1", "Ratio IC50": ">21"}, {"smiles": "O=S(=O)(c1nnc(N2CC3CCC(C2)O3)o1)C1CCCCC1", "Ratio IC50": ">500"}, {"smiles": "CC1CCCCN1c1nnc(S(=O)(=O)C2CCCCC2)o1", "note": "(racemic)", "Ratio IC50": ">40"}, {"smiles": "O=S(=O)(c1nnc(N2CCOCC2)o1)C1CCOCC1", "Ratio IC50": ">7"}, {"smiles": "O=S1(=O)CCN(c2nnc(S(=O)(=O)C3CCCCC3)o2)CC1", "Ratio IC50": ">4"}, {"smiles": "O=S(=O)(c1nnc(N2CCc3ccccc32)o1)C1CCCCC1", "Ratio IC50": ">9"}, {"smiles": "O=S(=O)(c1nnc(N2CCOc3ccccc32)o1)C1CCCCC1", "Ratio IC50": 2.3}, {"smiles": "O=S(=O)(c1nnc(N2CCCOCC2)o1)C1CCCCC1", "Ratio IC50": ">134"}, {"smiles": "O=S(=O)(c1nnc(N2C3CCC2COC3)o1)C1CCCCC1", "Ratio IC50": ">34"}, {"smiles": "O=S(=O)(c1nnc(N2CCCCC2)o1)C1CCCCC1", "Ratio IC50": ">32"}, {"smiles": "CCOC(=O)C1CCCN(c2nnc(S(=O)(=O)C3CCCCC3)o2)C1", "note": "(racemic)", "Ratio IC50": ">27"}]}, {"tested_on": "not listed separately", "assay": "Cytotoxicity against human NFF cells assessed as reduction in cell viability incubated for 72 hrs by SRB assay", "type": "toxicity, cell-based", "conditions": "not given", "units": {"IC50 at 72 h": "µM"}, "values": [{"smiles": "O=S(=O)(c1nnc(N2CCCC3(COC3)C2)o1)C1CCCCC1", "IC50 at 72 h": "> 100"}, {"smiles": "CC(C)(C)OC(=O)N1CCC(S(=O)(=O)c2nnc(N3CCOCC3)o2)CC1", "IC50 at 72 h": "> 100"}, {"smiles": "O=S(=O)(c1nnc(N2C3CCCC2CC3)o1)C1CCCCC1", "IC50 at 72 h": "> 100"}, {"smiles": "O=S(=O)(c1nnc(N2CCC3(CC2)OCCO3)o1)C1CCCCC1", "IC50 at 72 h": "> 100"}, {"smiles": "O=S(=O)(CC1CCCCC1)c1nnc(N2CCOCC2)o1", "IC50 at 72 h": 59}, {"smiles": "N#CC1CCN(c2nnc(S(=O)(=O)C3CCCCC3)o2)CC1", "IC50 at 72 h": "> 100"}, {"smiles": "O=S(=O)(c1nnc(N2CC3CCC(C2)O3)o1)C1CCCCC1", "IC50 at 72 h": "> 100"}, {"smiles": "CC1CCCCN1c1nnc(S(=O)(=O)C2CCCCC2)o1", "note": "(racemic)", "IC50 at 72 h": "> 100"}, {"smiles": "O=S(=O)(c1nnc(N2CCOCC2)o1)C1CCOCC1", "IC50 at 72 h": "> 100"}, {"smiles": "O=S(=O)(c1nnc(N2CCc3ccccc32)o1)C1CCCCC1", "IC50 at 72 h": "> 25"}, {"smiles": "O=S(=O)(c1nnc(N2CCOc3ccccc32)o1)C1CCCCC1", "IC50 at 72 h": 21.4}, {"smiles": "O=S(=O)(c1nnc(N2CCCOCC2)o1)C1CCCCC1", "IC50 at 72 h": "> 100"}, {"smiles": "O=S(=O)(c1nnc(N2C3CCC2COC3)o1)C1CCCCC1", "IC50 at 72 h": "> 100"}, {"smiles": "O=S(=O)(c1nnc(N2CCCCC2)o1)C1CCCCC1", "IC50 at 72 h": "> 100"}, {"smiles": "CCOC(=O)C1CCCN(c2nnc(S(=O)(=O)C3CCCCC3)o2)C1", "note": "(racemic)", "IC50 at 72 h": "> 100"}]}, {"tested_on": "Plasmodium falciparum", "assay": "Antimalarial activity against synchronous ring stage Plasmodium falciparum 3D7 infected in human Erythrocyte assessed as inhibition of parasite growth incubated for 96 hrs by [3H]-hypoxanthine incorporation assay", "type": "functional, organism-based", "conditions": "3D7, Erythrocyte", "units": {"IC50": "µM"}, "values": [{"smiles": "CC(C)(C)OC(=O)N1CCN(c2nnc(S(=O)(=O)C3CCCCC3)o2)CC1", "IC50": 2.73}, {"smiles": "O=S(=O)(c1nnc(N2CCCC3(COC3)C2)o1)C1CCCCC1", "IC50": 0.54}, {"smiles": "CC(C)(C)OC(=O)N1CCC(S(=O)(=O)c2nnc(N3CCOCC3)o2)CC1", "IC50": 5.05}, {"smiles": "Cl.O=S(=O)(c1nnc(N2CCOCC2)o1)C1CCNCC1", "IC50": "> 50"}, {"smiles": "O=S(=O)(c1nnc(N2C3CCCC2CC3)o1)C1CCCCC1", "IC50": 0.41}, {"smiles": "O=S(=O)(c1ccc(Cl)c(Cl)c1)c1nnc(N2CCOCC2)o1", "IC50": 24.6}, {"smiles": "O=S(=O)(c1nnc(N2CCC3(CC2)OCCO3)o1)C1CCCCC1", "IC50": 0.9}, {"smiles": "O=S(=O)(CC1CCCCC1)c1nnc(N2CCOCC2)o1", "IC50": 0.39}, {"smiles": "O=S(=O)(c1nnc(N2CCOCC2)o1)C1CCCC1", "IC50": 5.82}, {"smiles": "N#CC1CCN(c2nnc(S(=O)(=O)C3CCCCC3)o2)CC1", "IC50": 0.49}, {"smiles": "O=S(=O)(c1nnc(N2CC3CCC(C2)O3)o1)C1CCCCC1", "IC50": 0.1}, {"smiles": "CC1CCCCN1c1nnc(S(=O)(=O)C2CCCCC2)o1", "note": "(racemic)", "IC50": 0.31}, {"smiles": "O=S(=O)(c1nnc(N2CCOCC2)o1)C1CCOCC1", "IC50": 7.09}, {"smiles": "O=S1(=O)CCN(c2nnc(S(=O)(=O)C3CCCCC3)o2)CC1", "IC50": 6.75}, {"smiles": "O=S(=O)(c1nnc(N2CCc3ccccc32)o1)C1CCCCC1", "IC50": 1.12}, {"smiles": "O=S(=O)(c1nnc(N2CCOc3ccccc32)o1)C1CCCCC1", "IC50": 2.06}, {"smiles": "O=S(=O)(c1nnc(N2CCCOCC2)o1)C1CCCCC1", "IC50": 0.75}, {"smiles": "O=S(=O)(c1nnc(N2C3CCC2COC3)o1)C1CCCCC1", "IC50": 0.37}, {"smiles": "O=S(=O)(c1nnc(N2CCCCC2)o1)C1CCCCC1", "IC50": 0.4}, {"smiles": "CCOC(=O)C1CCCN(c2nnc(S(=O)(=O)C3CCCCC3)o2)C1", "note": "(racemic)", "IC50": 0.93}]}, {"tested_on": "Plasmodium falciparum", "assay": "Antimalarial activity against synchronous ring stage Plasmodium falciparum 3D7 infected in human Erythrocyte assessed as inhibition of parasite growth incubated for 48 hrs by [3H]-hypoxanthine incorporation assay", "type": "functional, organism-based", "conditions": "3D7, Erythrocyte", "units": {"IC50": "µM"}, "values": [{"smiles": "CC(C)(C)OC(=O)N1CCN(c2nnc(S(=O)(=O)C3CCCCC3)o2)CC1", "IC50": "> 50"}, {"smiles": "O=S(=O)(c1nnc(N2CCCC3(COC3)C2)o1)C1CCCCC1", "IC50": "> 50"}, {"smiles": "CC(C)(C)OC(=O)N1CCC(S(=O)(=O)c2nnc(N3CCOCC3)o2)CC1", "IC50": "> 25"}, {"smiles": "Cl.O=S(=O)(c1nnc(N2CCOCC2)o1)C1CCNCC1", "IC50": "> 50"}, {"smiles": "O=S(=O)(c1nnc(N2C3CCCC2CC3)o1)C1CCCCC1", "IC50": "> 25"}, {"smiles": "O=S(=O)(c1ccc(Cl)c(Cl)c1)c1nnc(N2CCOCC2)o1", "IC50": 13.1}, {"smiles": "O=S(=O)(c1nnc(N2CCC3(CC2)OCCO3)o1)C1CCCCC1", "IC50": "> 50"}, {"smiles": "O=S(=O)(CC1CCCCC1)c1nnc(N2CCOCC2)o1", "IC50": 17.6}, {"smiles": "O=S(=O)(c1nnc(N2CCOCC2)o1)C1CCCC1", "IC50": "> 50"}, {"smiles": "N#CC1CCN(c2nnc(S(=O)(=O)C3CCCCC3)o2)CC1", "IC50": "> 10"}, {"smiles": "O=S(=O)(c1nnc(N2CC3CCC(C2)O3)o1)C1CCCCC1", "IC50": "> 50"}, {"smiles": "CC1CCCCN1c1nnc(S(=O)(=O)C2CCCCC2)o1", "note": "(racemic)", "IC50": "> 12.5"}, {"smiles": "O=S(=O)(c1nnc(N2CCOCC2)o1)C1CCOCC1", "IC50": "> 50"}, {"smiles": "O=S1(=O)CCN(c2nnc(S(=O)(=O)C3CCCCC3)o2)CC1", "IC50": "> 25"}, {"smiles": "O=S(=O)(c1nnc(N2CCc3ccccc32)o1)C1CCCCC1", "IC50": "> 10"}, {"smiles": "O=S(=O)(c1nnc(N2CCOc3ccccc32)o1)C1CCCCC1", "IC50": 4.65}, {"smiles": "O=S(=O)(c1nnc(N2CCCOCC2)o1)C1CCCCC1", "IC50": "> 100"}, {"smiles": "O=S(=O)(c1nnc(N2C3CCC2COC3)o1)C1CCCCC1", "IC50": "> 12.5"}, {"smiles": "O=S(=O)(c1nnc(N2CCCCC2)o1)C1CCCCC1", "IC50": "> 12.5"}, {"smiles": "CCOC(=O)C1CCCN(c2nnc(S(=O)(=O)C3CCCCC3)o2)C1", "note": "(racemic)", "IC50": "> 25"}]}, {"tested_on": "not listed separately", "assay": "Selectivity index, ratio of IC50 for cytotoxicity against human NFF cells to IC50 for antimalarial activity against synchronous ring stage Plasmodium falciparum 3D7 infected in human Erythrocyte assessed as inhibition of parasite growth incubated for 96 hrs", "type": "toxicity, cell-based", "conditions": "read-out: Ratio IC50", "values": [{"smiles": "O=S(=O)(c1nnc(N2CCCC3(COC3)C2)o1)C1CCCCC1", "selectivity ratio at 96 h": "> 185"}, {"smiles": "CC(C)(C)OC(=O)N1CCC(S(=O)(=O)c2nnc(N3CCOCC3)o2)CC1", "selectivity ratio at 96 h": "> 20"}, {"smiles": "O=S(=O)(c1nnc(N2C3CCCC2CC3)o1)C1CCCCC1", "selectivity ratio at 96 h": "> 246"}, {"smiles": "O=S(=O)(c1nnc(N2CCC3(CC2)OCCO3)o1)C1CCCCC1", "selectivity ratio at 96 h": "> 111"}, {"smiles": "O=S(=O)(CC1CCCCC1)c1nnc(N2CCOCC2)o1", "selectivity ratio at 96 h": 151}, {"smiles": "N#CC1CCN(c2nnc(S(=O)(=O)C3CCCCC3)o2)CC1", "selectivity ratio at 96 h": "> 200"}, {"smiles": "O=S(=O)(c1nnc(N2CC3CCC(C2)O3)o1)C1CCCCC1", "selectivity ratio at 96 h": "> 1000"}, {"smiles": "CC1CCCCN1c1nnc(S(=O)(=O)C2CCCCC2)o1", "note": "(racemic)", "selectivity ratio at 96 h": "> 277"}, {"smiles": "O=S(=O)(c1nnc(N2CCOCC2)o1)C1CCOCC1", "selectivity ratio at 96 h": "> 14"}, {"smiles": "O=S(=O)(c1nnc(N2CCc3ccccc32)o1)C1CCCCC1", "selectivity ratio at 96 h": "> 26"}, {"smiles": "O=S(=O)(c1nnc(N2CCOc3ccccc32)o1)C1CCCCC1", "selectivity ratio at 96 h": 10}, {"smiles": "O=S(=O)(c1nnc(N2CCCOCC2)o1)C1CCCCC1", "selectivity ratio at 96 h": "> 133"}, {"smiles": "O=S(=O)(c1nnc(N2C3CCC2COC3)o1)C1CCCCC1", "selectivity ratio at 96 h": "> 270"}, {"smiles": "O=S(=O)(c1nnc(N2CCCCC2)o1)C1CCCCC1", "selectivity ratio at 96 h": "> 250"}, {"smiles": "CCOC(=O)C1CCCN(c2nnc(S(=O)(=O)C3CCCCC3)o2)C1", "note": "(racemic)", "selectivity ratio at 96 h": "> 111"}]}]}
